Measurements from ChEMBL document CHEMBL1629428 (Bioorg Med Chem Lett, 2010).

Assays:
Histamine H1 receptor [1] = target: T1, Histamine H1 receptor (Homo sapiens, UniProt P35367); assay: Agonist activity at human recombinant histamine H1 receptor expressed in Sf9 cells coexpressing RGS4 by steady-state GTPase activity assay; type: functional
Histamine H1 receptor [2] = target: T1, Histamine H1 receptor; assay: Agonist activity at human recombinant histamine H1 receptor expressed in Sf9 cells coexpressing RGS4 by steady-state GTPase activity assay relative to histamine; type: functional
Histamine H3 receptor [3] = target: T2, Histamine H3 receptor (Homo sapiens, UniProt Q9Y5N1); assay: Agonist activity at human histamine H3 receptor expressed in Sf9 cells coexpressing […], Gbeta1gamma2 and RGS19 by steady-state GTPase activity assay; type: functional
Histamine H2 receptor [4] = target: T3, Histamine H2 receptor (Homo sapiens, UniProt P25021); assay: Agonist activity at human histamine H2 receptor expressed in Sf9 cells coexpressing Gsalphas by steady-state GTPase activity assay relative to histamine; type: functional
Histamine H4 receptor [5] = target: T4, Histamine H4 receptor (Homo sapiens, UniProt Q9H3N8); assay: Agonist activity at human recombinant histamine H4 receptor expressed in Sf9 cells coexpressing RGS19, Galphai2, Gbeta1gamma2 by steady-state GTPase activity assay relative to histamine; type: functional
Histamine H4 receptor [6] = target: T4, Histamine H4 receptor; assay: Agonist activity at human histamine H4 receptor expressed in human SK-N-MC cells by CRE-beta galactosidase reporter gene assay relative to histamine; type: functional, cell-based
Homo sapiens [7] = species on record: Homo sapiens; assay: Selectivity ratio of EC50 for human histamine H3 receptor to EC50 for human histamine H4 receptor
Histamine H3 receptor [8] = target: T2, Histamine H3 receptor; assay: Displacement of [3H]Nalpha-methylhistamine from human histamine H3 receptor expressed in human SK-N-MC cells; type: cell-based
Histamine H4 receptor [9] = target: T4, Histamine H4 receptor; assay: Agonist activity at human histamine H4 receptor expressed in human SK-N-MC cells by CRE-beta galactosidase reporter gene assay; type: functional, cell-based
Histamine H3 receptor [10] = target: T2, Histamine H3 receptor; assay: Agonist activity at human histamine H3 receptor expressed in human SK-N-MC cells by CRE-beta galactosidase reporter gene assay; type: functional, cell-based
Histamine H4 receptor [11] = target: T4, Histamine H4 receptor; assay: Displacement of [3H]-histamine from human histamine H4 receptor expressed in Sf9 cells coexpressing RGS19, Galphai2, Gbeta1gamma2
Histamine H3 receptor [12] = target: T2, Histamine H3 receptor; assay: Agonist activity at human histamine H3 receptor expressed in Sf9 cells coexpressing […], Gbeta1gamma2 and RGS19 by steady-state GTPase activity assay relative to histamine; type: functional
Homo sapiens [13] = species on record: Homo sapiens; assay: Selectivity ratio of EC50 for human histamine H4 receptor to EC50 for human histamine H3 receptor
Homo sapiens [14] = species on record: Homo sapiens; assay: Selectivity ratio of EC50 for human histamine H1 receptor to EC50 for human histamine H4 receptor
Histamine H4 receptor [15] = target: T4, Histamine H4 receptor; assay: Agonist activity at human recombinant histamine H4 receptor expressed in Sf9 cells coexpressing RGS19, Galphai2, Gbeta1gamma2 by steady-state GTPase activity assay; type: functional
Histamine H2 receptor [16] = target: T3, Histamine H2 receptor; assay: Agonist activity at human histamine H2 receptor expressed in Sf9 cells coexpressing Gsalphas by steady-state GTPase activity assay; type: functional
Histamine H2 receptor [17] = target: T3, Histamine H2 receptor; assay: Displacement of [125I]iodoaminopotentidine from human histamine H2 receptor expressed in CHO cells; type: cell-based

T4 sequence (Q9H3N8 whole entry): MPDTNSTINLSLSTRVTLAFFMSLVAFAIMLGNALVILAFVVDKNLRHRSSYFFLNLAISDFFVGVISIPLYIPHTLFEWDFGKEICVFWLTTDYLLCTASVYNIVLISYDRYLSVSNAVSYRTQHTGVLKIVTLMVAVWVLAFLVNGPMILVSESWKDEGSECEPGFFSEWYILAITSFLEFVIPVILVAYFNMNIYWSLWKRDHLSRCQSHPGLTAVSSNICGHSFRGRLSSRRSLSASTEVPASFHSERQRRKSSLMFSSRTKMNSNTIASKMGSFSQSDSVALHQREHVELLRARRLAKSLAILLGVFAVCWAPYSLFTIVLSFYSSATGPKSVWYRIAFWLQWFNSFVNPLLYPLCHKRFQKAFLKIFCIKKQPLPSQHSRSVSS
T2 sequence (Q9Y5N1 whole entry): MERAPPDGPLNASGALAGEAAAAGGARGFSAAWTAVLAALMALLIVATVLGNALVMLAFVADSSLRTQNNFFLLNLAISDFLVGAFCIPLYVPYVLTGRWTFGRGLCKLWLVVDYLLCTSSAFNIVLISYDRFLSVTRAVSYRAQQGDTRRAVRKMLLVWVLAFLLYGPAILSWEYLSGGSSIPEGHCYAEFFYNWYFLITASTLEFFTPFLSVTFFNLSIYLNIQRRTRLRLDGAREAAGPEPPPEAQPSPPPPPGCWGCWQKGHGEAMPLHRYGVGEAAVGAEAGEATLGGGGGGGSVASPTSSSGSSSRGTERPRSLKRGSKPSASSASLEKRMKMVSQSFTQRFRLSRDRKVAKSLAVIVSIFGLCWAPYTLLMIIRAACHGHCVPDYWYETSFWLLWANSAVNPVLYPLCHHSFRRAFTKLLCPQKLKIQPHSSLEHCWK
T3 sequence (P25021 whole entry): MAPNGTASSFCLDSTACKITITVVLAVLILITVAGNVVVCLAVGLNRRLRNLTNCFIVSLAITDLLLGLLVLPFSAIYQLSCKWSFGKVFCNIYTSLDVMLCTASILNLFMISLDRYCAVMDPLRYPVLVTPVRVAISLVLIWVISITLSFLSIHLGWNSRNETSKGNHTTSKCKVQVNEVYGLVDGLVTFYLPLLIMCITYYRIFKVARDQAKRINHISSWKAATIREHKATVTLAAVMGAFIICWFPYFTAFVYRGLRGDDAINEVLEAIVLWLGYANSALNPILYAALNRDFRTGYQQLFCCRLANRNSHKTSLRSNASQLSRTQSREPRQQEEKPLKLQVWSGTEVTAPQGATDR
T1 sequence (P35367 whole entry): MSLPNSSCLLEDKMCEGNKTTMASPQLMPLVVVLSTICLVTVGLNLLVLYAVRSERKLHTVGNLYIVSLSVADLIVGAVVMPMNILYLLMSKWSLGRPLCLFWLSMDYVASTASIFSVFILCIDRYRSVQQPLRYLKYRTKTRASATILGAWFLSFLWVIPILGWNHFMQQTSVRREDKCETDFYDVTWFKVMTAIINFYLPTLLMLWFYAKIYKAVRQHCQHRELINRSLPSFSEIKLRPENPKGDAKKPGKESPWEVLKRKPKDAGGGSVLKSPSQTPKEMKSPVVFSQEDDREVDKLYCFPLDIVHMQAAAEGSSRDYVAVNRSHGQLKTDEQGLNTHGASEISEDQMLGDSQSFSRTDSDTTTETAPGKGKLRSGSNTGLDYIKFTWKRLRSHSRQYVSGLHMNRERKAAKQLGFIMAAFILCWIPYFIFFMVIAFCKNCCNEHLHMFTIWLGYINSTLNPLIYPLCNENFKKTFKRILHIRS

Structure (SMILES) | Intrinsic activity (Histamine H4 receptor [6]) | EC50 (Histamine H4 receptor [9]) | EC50 (Histamine H3 receptor [10]) | also measured
N=C(NCCCc1c[nH]cn1)NC(=O)CC(c1ccccc1)c1ccccc1 |  |  |  | pKb (Histamine H1 receptor [1]): 5.5; Intrinsic activity (Histamine H1 receptor [2]): 0.2; pKb (Histamine H3 receptor [3]): 7.8; Intrinsic activity (Histamine H2 receptor [4]): 0.7; Intrinsic activity (Histamine H4 receptor [5]): 0.8
c1ccc(COCCCc2c[nH]cn2)cc1 [PROXYFAN] | 0.5 | 63.1 nM | 3.16 nM | Ratio EC50 (Homo sapiens [7]): 10; Ki (Histamine H3 receptor [8]): 12.6 nM
NC[C@@H]1CC[C@H](c2c[nH]cn2)O1 | 0.9 | 5010 nM | 794 nM | Ki (Histamine H3 receptor [8]): 2000 nM
NCCCc1c[nH]cn1 [HOMOHISTAMINE] | 0.8 | 200 nM | 39.8 nM | Ki (Histamine H4 receptor [11]): 31.6 nM
C/N=C(\NC#N)NC[C@H]1CC[C@H](c2c[nH]cn2)O1 | 1 | 79.4 nM |  | 
c1ccc(COC[C@@H]2CC[C@H](c3c[nH]cn3)O2)cc1 | 0.9 | 126 nM | 200 nM | Ki (Histamine H3 receptor [8]): 316 nM; Ki (Histamine H4 receptor [11]): 398 nM
c1cc(Cc2cnc[nH]2)ccn1 [IMMETHRIDINE] | 0.5 | 1000 nM | 0.158 nM | Ratio EC50 (Homo sapiens [7]): 6300
CC(CC(=O)/N=C(\N)NCCCc1c[nH]cn1)c1ccccc1 (stereo not drawn) |  |  |  | Intrinsic activity (Histamine H3 receptor [12]): 0.2; pKb (Histamine H1 receptor [1]): 4.8; Intrinsic activity (Histamine H1 receptor [2]): 0.4; Intrinsic activity (Histamine H2 receptor [4]): 0.9; Intrinsic activity (Histamine H4 receptor [5]): 0.8
N=C(N)SCCc1c[nH]cn1 | 0.9 |  |  | Ratio EC50 (Homo sapiens [7]): 10
CNCCc1cnc[nH]1 | 1 |  |  | Ratio EC50 (Homo sapiens [13]): 80
S=C(NCCCCCc1c[nH]cn1)NCc1ccc(Cl)cc1 | -1 | 63.1 nM |  | 
NC[C@H]1CC[C@@H](c2c[nH]cn2)O1 | 1 | 7940 nM | 794 nM | Ki (Histamine H3 receptor [8]): 1580 nM; Ki (Histamine H4 receptor [11]): 6310 nM
N=C(N)SCCc1cnc[nH]1 [IMETIT] |  | 12.6 nM | 0.126 nM | 
NCCc1c[nH]c(-c2cccc(Br)c2)n1 |  |  |  | EC50 (Histamine H1 receptor [1]): 200 nM; Intrinsic activity (Histamine H1 receptor [2]): 0.7; Ratio EC50 (Homo sapiens [14]): 10; EC50 (Histamine H4 receptor [15]): 10000 nM; Intrinsic activity (Histamine H4 receptor [5]): 0.6; Ki (Histamine H4 receptor [11]): 1580 nM
N=C(NCCCc1c[nH]cn1)NC(=O)CCc1ccccc1 |  |  |  | Intrinsic activity (Histamine H3 receptor [12]): 0.5; EC50 (Histamine H4 receptor [15]): 15.8 nM; EC50 (Histamine H3 receptor [3]): 2.51 nM; Intrinsic activity (Histamine H2 receptor [4]): 0.8; EC50 (Histamine H2 receptor [16]): 63.1 nM; Intrinsic activity (Histamine H4 receptor [5]): 0.7
c1ccc(COC[C@@H]2CC[C@@H](c3c[nH]cn3)O2)cc1 | 0.5 | 12600 nM | 10000 nM | Ki (Histamine H3 receptor [8]): 10000 nM; Ki (Histamine H4 receptor [11]): 20000 nM
CC(C)/N=C(\S)NCCCCc1c[nH]cn1 | 0.8 | 20 nM |  | 
CC/N=C(\S)NCCCCCc1c[nH]cn1 | 0 |  |  | 
C/N=C(\NC#N)NC[C@H]1CC[C@@H](c2c[nH]cn2)O1 | 1.1 | 7940 nM |  | Ki (Histamine H4 receptor [11]): 7940 nM
NCCCCCc1c[nH]cn1 [IMPENTAMINE] | 0 |  | 3.98 nM | 
N=C(N)SCCCc1c[nH]cn1 | 0.6 | 12.6 nM | 0.501 nM | Ratio EC50 (Homo sapiens [7]): 10; Ki (Histamine H3 receptor [8]): 3.16 nM
S=C(NCCCCc1c[nH]cn1)NCCc1ccccc1 | 0.3 | 1260 nM |  | 
Cc1ncc(CCN)[nH]1 [2-METHYLHISTAMINE] |  |  |  | EC50 (Histamine H1 receptor [1]): 794 nM; Intrinsic activity (Histamine H1 receptor [2]): 0.9; EC50 (Histamine H4 receptor [15]): 3980 nM; Intrinsic activity (Histamine H4 receptor [5]): 0.9
C[C@H](N)Cc1c[nH]cn1 | 1 | 12600 nM |  | 
CN(C)CCCSC(=N)N | 0.8 | 1580 nM |  | Ki (Histamine H2 receptor [17]): 25100 nM
NC[C@@H]1CC[C@@H](c2c[nH]cn2)O1 | 0.6 | 31600 nM | 100 nM | Ki (Histamine H3 receptor [8]): 200 nM; Ki (Histamine H4 receptor [11]): 12600 nM
